US12527774B2, “Estrogen-related receptor alpha modulators” (LEAD PHARMA HOLDING B.V., priority 2019, dated 2026)

Target: ERRα ligand binding domain (ERRα-LBD) (Homo sapiens (Human), UniProt P11474)
Assay: ERRα AlphaScreen Assay
Type: biochemical
Conditions: disruption of binding of ERRα-LBD protein to biotin-PGC1α-3 co-activator peptide; for IC50: read-out: mean pIC50 (converted)
From the text: This assay was based on the knowledge that nuclear receptors interact with cofactors in a ligand dependent matter. The sites of interaction have been mapped to LXXLL motifs that are present in the co-activator sequences. Short peptide sequences that contain the LXXLL motif mimic the behavior of full length co-activators.
The ERRα AlphaScreen Assay described here relies on the interaction of the co-activator peptide with purified bacterial-expressed ERRα ligand binding domain (ERRα-LBD); upon ligand binding the ERRα protein can undergo a conformational change resulting in a loss of co-activator binding.
Compounds of the present invention were tested for their ability to disrupt binding of ERRα-LBD protein to co-activator peptide using AlphaScreen® Technology (Perkin Elmer). ERRα-LBD protein was expressed in E. coli as a 6×His Small Ubiquitin-like Modifier (SUMO) fusion. Bacterial expressed 6His-SUMO-ERRα-LBD protein was purified using affinity chromatography. All experiments were performed at room temperature in 384-well white non-binding plates (Greiner) using 50 mM Tris-HCl pH 7.5, 100 mM NaCl, 0,1% Pluronic F-127, 0.05% BSA and 5 mM TCEP as the buffer. Final DMSO concentration was 1% in the assay. Compounds were assayed in triplicate and: incubated with 0.81 nM ERRα-LBD protein and 10 μg/mL streptavidin donor beads and 10 μg/mL Ni-chelate acceptor beads for 1 hour at room temperature; followed by a 2-hour incubation with 15 nM biotin-PGC1α-3 peptide (QRRPCSELLKYLTTNDDPP) corresponding to amino acids 202 to 220.
The AlphaScreen signal was measured using an Envision Xcite plate reader (Perkin Elmer). Data was normalized, and curve fitting analysis was performed in GraphPad Prism 7 using a four-parameter dose-response fit.
As multiple IC50 values were annotated for the same compound-protein pair, a mean pIC50 for each compound was determined.

ERRα ligand binding domain (ERRα-LBD), sequence (P11474 193-421): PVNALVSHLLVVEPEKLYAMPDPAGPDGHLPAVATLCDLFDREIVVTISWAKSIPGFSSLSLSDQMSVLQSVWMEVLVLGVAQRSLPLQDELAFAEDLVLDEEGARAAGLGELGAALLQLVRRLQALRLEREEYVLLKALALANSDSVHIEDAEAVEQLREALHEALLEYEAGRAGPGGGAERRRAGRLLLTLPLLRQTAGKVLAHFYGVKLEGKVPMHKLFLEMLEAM

SMILES | IC50 | mean pIC50
COc1cc(C2CC(=O)Nc3n[nH]cc32)ccc1OCc1ccccc1C(F)F (stereo not shown) [Example 49, 4-(4-{[2-(difluoromethyl)phenyl]methoxy}-3-methoxyphenyl)-2H,4H,5H,6H, 7H-pyrazolo[3,4-b]pyridin-6-one] | 100 to 1000 nM | 
CCOC(=O)c1ccccc1COc1ccc(C2CC(=O)Nc3n[nH]cc32)cc1OC (stereo not shown) [Example 48, ethyl 2-[(2-methoxy-4-{6-oxo-2H,4H,5H, 6H,7H-pyrazolo[3,4-b]pyridin-4-yl}phenoxy)methyl]benzoate] | 100 to 1000 nM | 
CCCOC(=O)c1ccccc1COc1ccc(C2CC(=O)Nc3n[nH]cc32)cc1OC (stereo not shown) [Example 125, propyl 2-(2-methoxy-4-{6-oxo-2H,4H,5H,6H,7H-pyrazolo[3,4-b]pyridin-4-yl}phenoxymethyl)benzoate] | 100 to 1000 nM | 
O=C1CC(c2ccc(OCc3ccccc3C(F)(F)F)c(Br)c2)c2c[nH]nc2N1 (stereo not shown) [Example 70, 4-(3-bromo-4-{[2-(trifluoromethyl)phenyl]methoxy}phenyl)-2H,4H,5H,6H, 7H-pyrazolo[3,4-b]pyridin-6-one] | 10 to 100 nM | 
COc1cc(C2CC(=O)Nc3[nH]nnc32)ccc1OCc1ccccc1C(F)(F)F (stereo not shown) [Example 90, 7-(3-methoxy-4-{[2-(trifluoromethyl)phenyl]methoxy}phenyl)-3H,4H,5H,6H, 7H-[1,2,3]triazolo[4,5-b]pyridin-5-one] |  | ≥ 8
COc1cc(C2CC(=O)Nc3n[nH]cc32)ccc1COc1cc(C(F)F)cc(C(F)(F)F)c1 (stereo not shown) [Example 118, 4-(4-{[3-(difluoromethyl)-5-(trifluoromethyl)phenoxy]methyl}-3-methoxyphenyl)-2H,4H,5H,6H,7H-pyrazolo[3,4-b]pyridin-6-one] | 100 to 1000 nM | 
O=C1CC(c2ccc(OCc3ccccc3C(F)(F)F)cc2F)c2c[nH]nc2N1 (stereo not shown) [Example 66, 4-(2-fluoro-4-{[2-(trifluoromethyl)phenyl]methoxy}phenyl)-2H,4H,5H,6H, 7H-pyrazolo[3,4-b]pyridin-6-one] | 100 to 1000 nM | 
Cc1cc(C2CC(=O)Nc3n[nH]cc32)ccc1OCc1ccccc1C(F)(F)F (stereo not shown) [Example 73, 4-(3-methyl-4-{[2-(trifluoromethyl)phenyl]methoxy}phenyl)-2H,4H,5H,6H,7H-pyrazolo[3,4-b]pyridin-6-one] | 10 to 100 nM | 
COc1cc(-c2cc(=O)[nH]c3n[nH]cc23)ccc1OCc1ccccc1OC(F)F [Example 180, 4-(4-{[2-(difluoromethoxy)phenyl]methoxy}-3-methoxyphenyl)-2H,6H, 7H-pyrazolo[3,4-b]pyridin-6-one] |  | ≥ 8
COc1cc(C2CC(=O)Nc3n[nH]cc32)ccc1OCc1c(F)cccc1C(F)(F)F (stereo not shown) [Example 21, 4-(4-{[2-fluoro-6-(trifluoromethyl)phenyl]methoxy}-3-methoxyphenyl)-2H,4H,5H,6H,7H-pyrazolo[3,4-b]pyridin-6-one] | 100 to 1000 nM | 
COC(=O)c1ccccc1COc1ccc(C2CC(=O)Nc3n[nH]cc32)cc1OC (stereo not shown) [Example 26, methyl 2-(2-methoxy-4-{6-oxo-2H,4H,5H,6H,7H-pyrazolo[3,4-b]pyridin-4-yl}phenoxymethyl)benzoate] | 10 to 100 nM | 
COC(=O)C1C(=O)Nc2n[nH]cc2C1c1ccc(COc2ccc(C(F)(F)F)cc2C(F)(F)F)c(OC)c1 (stereo not shown) [Example 187, methyl 4-(4-{[2,4-bis(trifluoromethyl)phenoxy]methyl}-3-methoxyphenyl)-6-oxo-2H,4H,5H,6H, 7H-pyrazolo[3,4-b]pyridine-5-carboxylate] | 100 to 1000 nM | 
COc1cc(-c2cc(=O)[nH]c3n[nH]cc23)ccc1OCc1ccncc1C(F)(F)F [Example 172, 4-(3-methoxy-4-{[3-(trifluoromethyl)pyridin-4-yl]methoxy}phenyl)-2H,6H, 7H-pyrazolo[3,4-b]pyridin-6-one] | 100 to 1000 nM | 
COc1cc(C2CC(=O)Nc3n[nH]cc32)ccc1OCc1ccc(CC(C)(C)O)cc1C(F)(F)F (stereo not shown) [Example 153, 4-(4-{[4-(2-hydroxy-2-methylpropyl)-2-(trifluoromethyl)phenyl]methoxy}-3-methoxyphenyl)-2H,4H,5H,6H,7H-pyrazolo[3,4-b]pyridin-6-one] | 10 to 100 nM | 
COc1ccccc1COc1ccc(-c2cc(=O)[nH]c3n[nH]cc23)cc1OC [Example 171, 4-{3-methoxy-4-[(2-methoxyphenyl)methoxy]phenyl}-2H,6H, 7H-pyrazolo[3,4-b]pyridin-6-one] | 10 to 100 nM | 
COc1cc(C2CC(=O)Nc3n[nH]cc32)ccc1OCc1ccc(O)cc1C(F)(F)F (single isomer, unassigned; (+)) [Example 209, (+)-4-(4-{[4-hydroxy-2-(trifluoromethyl)phenyl]methoxy}-3-methoxyphenyl)-2H,4H,5H,6H,7H-pyrazolo[3,4-b]pyridin-6-one] | 10 to 100 nM | 

SMILES | IC50 | mean pIC50
O=C1CC(c2ccc(OCc3ccccc3C(F)(F)F)c([N+](=O)[O-])c2)c2c[nH]nc2N1 (stereo not shown) [Example 67, 4-(3-nitro-4-{[2-(trifluoromethyl)phenyl]methoxy}phenyl)-2H,4H,5H,6H,7H-pyrazolo[3,4-b]pyridin-6-one] | 100 to 1000 nM | 
COc1cc(C2CC(=O)Nc3n[nH]cc32)ccc1COc1ccc(C)cc1C(F)(F)F (single isomer, unassigned; (+)) [Example 213, (+)-4-(3-methoxy-4-{[4-methyl-2-(trifluoromethyl)phenoxy]methyl}phenyl)-2H,4H,5H,6H,7H-pyrazolo[3,4-b]pyridin-6-one] | 10 to 100 nM | 
COc1cc(C2CC(=O)Nc3n[nH]cc32)ccc1COc1ccc(C(F)(F)F)cc1C (stereo not shown) [Example 112, 4-(3-methoxy-4-{[2-methyl-4-(trifluoromethyl)phenoxy]methyl}phenyl)-2H,4H,5H,6H,7H-pyrazolo[3,4-b]pyridin-6-one] | 10 to 100 nM | 
COc1cc(-c2cc(=O)[nH]c3n[nH]cc23)ccc1OCc1ccccc1 [Example 183, 4-[4-(benzyloxy)-3-methoxyphenyl]-2H,6H, 7H-pyrazolo[3,4-b]pyridin-6-one] | 100 to 1000 nM | 
CCOC(=O)c1cc(C2CC(=O)Nc3n[nH]cc32)ccc1OCc1ccccc1C(F)(F)F (stereo not shown) [Example 128, ethyl 5-{6-oxo-2H,4H,5H,6H,7H-pyrazolo[3,4-b]pyridin-4-yl}-2-{[2-(trifluoromethyl)phenyl]methoxy}benzoate] | 10 to 100 nM | 
COc1cc(C2CC(=O)Nc3n[nH]cc32)ccc1OCc1cccc(Cl)c1Cl (stereo not shown) [Example 22, 4-{4-[(2,3-dichlorophenyl)methoxy]-3-methoxyphenyl}-2H,4H,5H,6H,7H-pyrazolo[3,4-b]pyridin-6-one] | 100 to 1000 nM | 
COc1cc(C2CC(=O)Nc3n[nH]cc32)ccc1OCc1ccc(C(N)=O)cc1C(F)(F)F (stereo not shown) [Example 121, 4-(2-methoxy-4-{6-oxo-2H,4H,5H,6H, 7H-pyrazolo[3,4-b]pyridin-4-yl}phenoxymethyl)-3-(trifluoromethyl)benzamide] | 100 to 1000 nM | 
COc1cc(C2CC(=O)Nc3n[nH]cc32)ccc1OCc1cccc(OC)c1OC (stereo not shown) [Example 39, 4-{4-[(2,3-dimethoxyphenyl)methoxy]-3-methoxyphenyl}-2H,4H,5H,6H,7H-pyrazolo[3,4-b]pyridin-6-one] | 100 to 1000 nM | 
O=C1CC(c2ccc(OCc3ccccc3Br)cc2)c2c[nH]nc2N1 (stereo not shown) [Example 58, 4-{4-[(2-bromophenyl)methoxy]phenyl}-2H,4H,5H,6H,7H-pyrazolo[3,4-b]pyridin-6-one] | 100 to 1000 nM | 
COc1cc(C2CC(=O)Nc3n[nH]cc32)ccc1OCc1ccccc1Cl (stereo not shown) [Example 2, 4-{4-[(2-chlorophenyl)methoxy]-3-methoxyphenyl}-2H,4H,5H,6H,7H-pyrazolo[3,4-b]pyridin-6-one] | 10 to 100 nM | 
COc1cc(C2CC(=O)Nc3n[nH]cc32)ccc1OCc1cc2c(cc1Br)OCO2 (stereo not shown) [Example 43, 4-{4-[(6-bromo-2H-1,3-benzodioxol-5-yl)methoxy]-3-methoxyphenyl}-2H,4H,5H,6H, 7H-pyrazolo[3,4-b]pyridin-6-one] | 10 to 100 nM | 
COc1cc(C2CC(=O)Nc3n[nH]cc32)ccc1COc1ccc(C(F)(F)F)cc1C(F)F (stereo not shown) [Example 117, 4-(4-{[2-(difluoromethyl)-4-(trifluoromethyl)phenoxy]methyl}-3-methoxyphenyl)-2H,4H,5H,6H, 7H-pyrazolo[3,4-b]pyridin-6-one] | 10 to 100 nM | 
COc1cc(C2CC(=O)Nc3n[nH]cc32)ccc1OCc1ccc(C(C)(C)CO)cc1C(F)(F)F (stereo not shown) [Example 152, 4-(4-{[4-(1-hydroxy-2-methylpropan-2-yl)-2-(trifluoromethyl)phenyl]methoxy}-3-methoxyphenyl)-2H,4H,5H,6H, 7H-pyrazolo[3,4-b]pyridin-6-one] | 10 to 100 nM | 
COc1cc(C2CC(=O)Nc3n[nH]cc32)ccc1OCc1cccc2ccsc12 (stereo not shown) [Example 45, 4-{4-[(1-benzothiophen-7-yl)methoxy]-3-methoxyphenyl}-2H,4H,5H,6H, 7H-pyrazolo[3,4-b]pyridin-6-one] | 10 to 100 nM | 
COc1ccccc1COc1ccc(C2CC(=O)Nc3n[nH]cc32)cc1OC (stereo not shown) [Example 30, 4-{3-methoxy-4-[(2-methoxyphenyl)methoxy]phenyl}-2H,4H,5H,6H,7H-pyrazolo[3,4-b]pyridin-6-one] | 100 to 1000 nM | 
